Measured values reported in the supplement of paper PMC6045584.

Experiments:
Assay in all cases: area under dose-response curve of surviving fraction (unscaled, Aref=0) (surviving fraction x log10(nM)); higher = more resistant
Details in all cases: exposure time: 5 days; dose range 0.5-1000 nM
SUNITINIB = compound: CCN(CC)CCNC(=O)c1c(C)[nH]c(/C=C2\C(=O)Nc3ccc(F)cc32)c1C [SUNITINIB]
Method in brief: (§1)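 Tumour cell lines in 384-well plates were exposed to eight inhibitor concentrations, from 0.5 to 1000 nM, for five days, and viability was read by CellTiter-Glo luminescence in three screens per line. Signals were normalised to DMSO-only wells, and 3-parameter logistic regression in the drc R package fitted dose-response survival curves to the surviving fractions. Area under the curve is given as the unscaled activity area. That area is taken over log10 dose with Aref = 0.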

EVEROLIMUS = compound: CO[C@H]1C[C@@H]2CC[C@@H](C)[C@@](O)(O2)C(=O)C(=O)N2CCCC[C@H]2C(=O)O[C@H]([C@H](C)C[C@@H]2CC[C@@H](OCCO)[C@H](OC)C2)CC(=O)[C@H](C)/C=C(\C)[C@@H](O)[C@@H](OC)C(=O)[C@H](C)C[C@H](C)/C=C/C=C/C=C/1C [EVEROLIMUS]
Method in brief: as §1

ETOPOSIDE = compound: COc1cc([C@@H]2c3cc4c(cc3[C@@H](O[C@@H]3O[C@@H]5CO[C@@H](C)O[C@H]5[C@H](O)[C@H]3O)[C@H]3COC(=O)[C@H]23)OCO4)cc(OC)c1O [ETOPOSIDE]
Method in brief: as §1

MK2206 = compound: NC1(c2ccc(-c3nc4ccn5c(=O)[nH]nc5c4cc3-c3ccccc3)cc2)CCC1 [MK2206]
Method in brief: as §1

METHOTREXATE = compound: CN(Cc1cnc2nc(N)nc(N)c2n1)c1ccc(C(=O)N[C@@H](CCC(=O)O)C(=O)O)cc1 [METHOTREXATE]
Method in brief: as §1

ERLOTINIB = compound: C#Cc1cccc(Nc2ncnc3cc(OCCOC)c(OCCOC)cc23)c1 [ERLOTINIB]
Method in brief: as §1

[1] = compound: Cc1nc(Nc2n[nH]c3c2CN(C(=O)N[C@H](CN(C)C)c2ccccc2)C3(C)C)c2sccc2n1
Method in brief: as §1

[2] = compound: O=C(NOCC1CC1)c1ccc(F)c(F)c1Nc1ccc(I)cc1Cl
Method in brief: as §1

AZD4547 = compound: COc1cc(CCc2cc(NC(=O)c3ccc(N4CC(C)NC(C)C4)cc3)n[nH]2)cc(OC)c1 [AZD4547]
Method in brief: as §1

Test System | area under dose-response curve (SUNITINIB) | area under dose-response curve (EVEROLIMUS) | area under dose-response curve (ETOPOSIDE) | area under dose-response curve (MK2206) | area under dose-response curve (METHOTREXATE) | area under dose-response curve (ERLOTINIB) | area under dose-response curve [1] | area under dose-response curve [2] | area under dose-response curve (AZD4547)
SUM159 BREAST | 3.06 | 2.88 | 2.91 | 3.58 | 3.2 | 3.56 | 2.39 | 2.75 | 3.84
MDAMB134 BREAST | 2.75 | 2.21 | 3.5 | 2.78 | 3.13 | 3.65 | 3.15 | 2.87 | 3.23
MDAMB231 BREAST | 3.4 | 2.01 | 3.08 | 3.09 | 3.12 | 3.4 | 1.79 | 3.01 | 3.37
HCC1954 BREAST | 1.44 | 1.2 | 2.69 | 3.11 | 3.57 | 2.94 | 1.63 | 3.07 | 3.05
HCC70 BREAST | 3.4 | 1.89 | 3.16 | 2.8 | 3 | 3.46 | 0.85 | 2.8 | 3.63
MHM BONE | 3.15 | 2.37 | 3.23 | 3.2 | 2.88 | 3.44 | 2.58 | 3.16 | 2.76
NY BONE | 2.99 | 2.33 | 3.17 | 3.18 | 2.49 | 3.37 | 1.56 | 3.13 | 2.25
JIMT1 BREAST | 2.96 | 1.88 | 3.23 | 3.01 | 1.69 | 3.16 | 2.28 | 3.11 | 3.41
KPD BONE | 3.08 | 1.44 | 2.77 | 2.3 | 3.55 | 3.57 | 1.06 | 3.25 | 3.14
T47D BREAST | 3.18 | 2.24 | 2.95 | 2.61 | 2.28 | 3.73 | 2.87 | 3.24 | 3.76
CAL51 BREAST | 2.99 | 1.23 | 2.79 | 3.16 | 1.91 | 3.36 | 0.818 | 3.12 | 2.67
